Laboratory results as given in patent US6939946B2, “Ring modified cyclic peptide analogs” (Eli Lilly and Company, priority 1998, dated 2005).
Bridge positions count the residues as written; N and C are the ends. Square brackets hold non-standard residues; d marks the D form. Peptide text beside a SMILES is read from it. * marks the point of attachment. ξ: configuration not given here. pTerphenylCO(4''-OnC5H11) = CCCCCOc1ccc(-c2ccc(-c3ccc(C(=O)*)cc3)cc2)cc1; Pro(3S-OH,4S-Me) = C[C@H]1CN[C@H](C(=O)O)[C@H]1O; hTyr(3R-OH) = N[C@H](C(=O)O)[C@H](O)Cc1ccc(O)cc1; Hyp = O=C(O)[C@@H]1C[C@@H](O)CN1; Thr(3ξ) = CC(O)[C@H](N)C(=O)O; dOrn = NCCC[C@@H](N)C(=O)O; Orn = NCCC[C@H](N)C(=O)O; Dab = NCC[C@H](N)C(=O)O

How the values were obtained:
Settings in all cases: in vitro
C. albicans = test system: C. albicans
C. parapsilosis = test system: C. parapsilosis
A. fumigatus = test system: A. fumigatus
Histoplasma capsulatum = test system: Histoplasma capsulatum

Compound	Minimal Inhibitory Concentration MIC C. albicans (C. albicans) [µg/mL]	Minimal Inhibitory Concentration MIC C. parapsilosis (C. parapsilosis) [µg/mL]	Minimal Inhibitory Concentration MIC A. fumigatus (A. fumigatus) [µg/mL]	Minimal Inhibitory Concentration MIC Histoplasma capsulatum (Histoplasma capsulatum) [µg/mL]
CCCCCOc1ccc(-c2ccc(-c3ccc(C(=O)N[C@H]4CCCCNC(=O)[C@@H]5[C@@H](O)[C@@H](C)CN5C(=O)[C@H](C(C)O)NC(=O)[C@H]([C@H](O)Cc5ccc(O)cc5)NC(=O)[C@@H]5C[C@@H](O)CN5C(=O)[C@H](C(C)O)NC4=O)cc3)cc2)cc1 (stereo partly drawn) [Compound E1-5] ({pTerphenylCO(4''-OnC5H11)}-K[Thr(3ξ)][Hyp][hTyr(3R-OH)][Thr(3ξ)][Pro(3S-OH,4S-Me)]; lactam 1-C)	0.02	>20	2.5	0.156
CCCCCOc1ccc(-c2ccc(-c3ccc(C(=O)N[C@H]4CCNNC(=O)[C@@H]5[C@@H](O)[C@@H](C)CN5C(=O)[C@H](C(C)O)NC(=O)[C@H]([C@H](O)Cc5ccc(O)cc5)NC(=O)[C@@H]5C[C@@H](O)CN5C(=O)[C@H](C(C)O)NC4=O)cc3)cc2)cc1 (stereo partly drawn) [E2-10(b)]	0.01	0.156	0.156	0.156
CCCCCOc1ccc(-c2ccc(-c3ccc(C(=O)N[C@H]4CCNC(=O)[C@@H]5[C@@H](O)[C@@H](C)CN5C(=O)[C@H](C(C)O)NC(=O)[C@H]([C@H](O)Cc5ccc(O)cc5)NC(=O)[C@@H]5C[C@@H](O)CN5C(=O)[C@H](C(C)O)NC4=O)cc3)cc2)cc1 (stereo partly drawn) [Compound E1-6] ({pTerphenylCO(4''-OnC5H11)}-[Dab][Thr(3ξ)][Hyp][hTyr(3R-OH)][Thr(3ξ)][Pro(3S-OH,4S-Me)]; lactam 1-C)	0.039	>20	20	0.078
CCCCCOc1ccc(-c2ccc(-c3ccc(C(=O)N[C@H]4CCN(C(=O)CN)NC(=O)[C@@H]5[C@@H](O)[C@@H](C)CN5C(=O)[C@H](C(C)O)NC(=O)[C@H]([C@H](O)Cc5ccc(O)cc5)NC(=O)[C@@H]5C[C@@H](O)CN5C(=O)[C@H](C(C)O)NC4=O)cc3)cc2)cc1 (stereo partly drawn) [Compound E2-12]	0.01	0.312	0.156	0.039
CCCCCOc1ccc(-c2ccc(-c3ccc(C(=O)N[C@H]4CCN(C(=O)C(N)CN)NC(=O)[C@@H]5[C@@H](O)[C@@H](C)CN5C(=O)[C@H](C(C)O)NC(=O)[C@H]([C@H](O)Cc5ccc(O)cc5)NC(=O)[C@@H]5C[C@@H](O)CN5C(=O)[C@H](C(C)O)NC4=O)cc3)cc2)cc1 (single isomer, unassigned) [E2-13 (isomer 2)]	0.156	20	1.25	10
CCCCCOc1ccc(-c2ccc(-c3ccc(C(=O)N[C@H]4CNC(=N)NC(=O)[C@@H]5[C@@H](O)[C@@H](C)CN5C(=O)[C@H](C(C)O)NC(=O)[C@H]([C@H](O)Cc5ccc(O)cc5)NC(=O)[C@@H]5C[C@@H](O)CN5C(=O)[C@H](C(C)O)NC4=O)cc3)cc2)cc1 (stereo partly drawn) [Compound E6-6]	0.078	>20	>20	>20
CCCCCOc1ccc(-c2ccc(-c3ccc(C(=O)N[C@@H]4CCCNC(=O)[C@@H]5[C@@H](O)[C@@H](C)CN5C(=O)[C@H](C(C)O)NC(=O)[C@H]([C@H](O)Cc5ccc(O)cc5)NC(=O)[C@@H]5C[C@@H](O)CN5C(=O)[C@H](C(C)O)NC4=O)cc3)cc2)cc1 (stereo partly drawn) [Compound E1-4] ({pTerphenylCO(4''-OnC5H11)}-[dOrn][Thr(3ξ)][Hyp][hTyr(3R-OH)][Thr(3ξ)][Pro(3S-OH,4S-Me)]; lactam 1-C)	1.25	>20	20.0	5.0
CCCCCOc1ccc(-c2ccc(-c3ccc(C(=O)N[C@H]4CCCNC(=O)[C@@H]5[C@@H](O)[C@@H](C)CN5C(=O)[C@H](C(C)O)NC(=O)[C@H]([C@H](O)Cc5ccc(O)cc5)NC(=O)[C@@H]5C[C@@H](O)CN5C(=O)[C@H](C(C)O)NC4=O)cc3)cc2)cc1 (stereo partly drawn) [Compound E1-3] ({pTerphenylCO(4''-OnC5H11)}-[Orn][Thr(3ξ)][Hyp][hTyr(3R-OH)][Thr(3ξ)][Pro(3S-OH,4S-Me)]; lactam 1-C)	0.005	0.156	0.078	0.156
CCCCCOc1ccc(-c2ccc(-c3ccc(C(=O)N[C@H]4CCN(CCC)NC(=O)[C@@H]5[C@@H](O)[C@@H](C)CN5C(=O)[C@H](C(C)O)NC(=O)[C@H]([C@H](O)Cc5ccc(O)cc5)NC(=O)[C@@H]5C[C@@H](O)CN5C(=O)[C@H](C(C)O)NC4=O)cc3)cc2)cc1 (stereo partly drawn) [E2-11(c)]	0.312	1.25	0.156	0.312
CCCCCOc1ccc(-c2ccc(-c3ccc(C(=O)N[C@H]4CCCNC(=O)[C@@H]5[C@@H](O)[C@@H](C)CN5C(=O)[C@H](C(C)O)NC(=O)[C@H]([C@H](O)Cc5ccc(O)cc5)NC(=O)[C@@H]5C[C@@H](O)CN5C(=O)[C@H](C(C)C)NC4=O)cc3)cc2)cc1 (stereo partly drawn) [Compound E4-6] ({pTerphenylCO(4''-OnC5H11)}-[Orn]V[Hyp][hTyr(3R-OH)][Thr(3ξ)][Pro(3S-OH,4S-Me)]; lactam 1-C)	1.25	>20	>20	>20
CCCCCOc1ccc(-c2ccc(-c3ccc(C(=O)N[C@H]4CCN(C(=O)C(N)CN)NC(=O)[C@@H]5[C@@H](O)[C@@H](C)CN5C(=O)[C@H](C(C)O)NC(=O)[C@H]([C@H](O)Cc5ccc(O)cc5)NC(=O)[C@@H]5C[C@@H](O)CN5C(=O)[C@H](C(C)O)NC4=O)cc3)cc2)cc1 (single isomer, unassigned) [E2-13 (isomer 1)]	0.078	2.5	0.625	1.25
CCCCCOc1ccc(-c2ccc(-c3ccc(C(=O)N[C@@H]4CS(=O)(=O)CCNC(=O)[C@@H]5[C@H](O)[C@@H](C)CN5C(=O)[C@H]([C@@H](C)O)NC(=O)[C@H]([C@H](O)Cc5ccc(O)cc5)NC(=O)[C@@H]5C[C@@H](O)CN5C(=O)[C@H]([C@@H](C)O)NC4=O)cc3)cc2)cc1 [Compound E3-7]	>20	>20	>20	>20
